Biological target: P. falciparum apicoplast DNA polymerase (Pf-apPOL) (Plasmodium falciparum, UniProt Q8ILY1)
Test: Fluorescence-based high-throughput DNA polymerase assay (molecular beacon), primary screen and dose-response;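 on % inhibition Apol 40': compound concentration given in µM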
Assay type: biochemical
Conditions: for DNA Pol: 90 min, 10 µM
How it was run: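 Single-point screening used 10 µM compound with 20 nM polymerase, 20 nM hairpin substrate and 6 µM dNTPs for 90 min at 25 °C. Confirmatory titrations (2.5–80 µM) followed fluorescence at three times, and IC50 was derived from a fit including a cooperativity term n.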

[1] = 'DNA Pol' of the 186 hits list (primary screen value)

Chain of P. falciparum apicoplast DNA polymerase (Pf-apPOL) (Q8ILY1 entry or part of it): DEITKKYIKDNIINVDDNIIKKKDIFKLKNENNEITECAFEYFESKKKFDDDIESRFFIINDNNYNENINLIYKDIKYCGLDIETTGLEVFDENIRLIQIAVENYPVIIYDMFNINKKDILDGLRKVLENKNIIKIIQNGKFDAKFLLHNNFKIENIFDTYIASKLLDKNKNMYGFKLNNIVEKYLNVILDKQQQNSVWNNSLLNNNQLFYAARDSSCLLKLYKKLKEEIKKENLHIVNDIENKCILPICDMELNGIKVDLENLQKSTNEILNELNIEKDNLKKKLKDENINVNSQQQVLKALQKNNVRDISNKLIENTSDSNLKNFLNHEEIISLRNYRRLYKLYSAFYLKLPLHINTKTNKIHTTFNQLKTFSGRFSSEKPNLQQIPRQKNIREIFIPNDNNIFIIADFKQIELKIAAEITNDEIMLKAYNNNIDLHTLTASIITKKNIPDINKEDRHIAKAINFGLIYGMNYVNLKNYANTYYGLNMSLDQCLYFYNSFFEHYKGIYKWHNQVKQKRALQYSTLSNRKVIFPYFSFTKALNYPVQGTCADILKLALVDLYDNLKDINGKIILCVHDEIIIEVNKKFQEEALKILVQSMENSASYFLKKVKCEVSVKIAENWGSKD

SMILES: CC(C)(C)OC(=O)COc1ccc2cc(-c3ccccc3)c(=O)oc2c1 [Molecule 81, O=C(OC(C)(C)C)COc1ccc2c(c1)oc(=O)c(c2)c1ccccc1]
- DNA Pol [1]: 44
- DNA Pol (DNA Pol (primary screen value)): 44
- % inhibition Apo pol 10' (DRC-1, concentration 2.5): -2.0657%
- % inhibition Apo pol 10' (DRC-1, concentration 5): -5.666%
- % inhibition Apo pol 10' (DRC-1, concentration 10): 3.988%
- % inhibition Apo pol 10' (DRC-1, concentration 20): 8.332%
- % inhibition Apo pol 10' (DRC-1, concentration 40): 16.7579%
- % inhibition Apo pol 10' (DRC-1, concentration 80): 23.4286%
- % inhibition Apol 90' (DRC-1, concentration 2.5): 2.03%
- % inhibition Apol 90' (DRC-1, concentration 5): 3.443%
- % inhibition Apol 90' (DRC-1, concentration 10): 16.0875%
- % inhibition Apol 90' (DRC-1, concentration 20): 22.5271%
- % inhibition Apol 90' (DRC-1, concentration 40): 30.9519%
- % inhibition Apol 90' (DRC-1, concentration 80): 41.1721%
- % inhibition apPOL 180' (DRC-1, concentration 2.5): 5.717%
- % inhibition apPOL 180' (DRC-1, concentration 5): 14.8656%
- % inhibition apPOL 180' (DRC-1, concentration 10): 30.2199%
- % inhibition apPOL 180' (DRC-1, concentration 20): 41.9896%
- % inhibition apPOL 180' (DRC-1, concentration 40): 50.3603%
- % inhibition apPOL 180' (DRC-1, concentration 80): 64.7026%
- % inhibition Apo pol 5' (DRC-2, concentration 2.5): 8%
- % inhibition Apo pol 5' (DRC-2, concentration 5): 10%
- % inhibition Apo pol 5' (DRC-2, concentration 10): 23%
- % inhibition Apo pol 5' (DRC-2, concentration 20): 28%
- % inhibition Apo pol 5' (DRC-2, concentration 40): 36%
- % inhibition Apo pol 5' (DRC-2, concentration 80): 44%
- % inhibition Apol 40' (DRC-2, concentration 2.5): 5.4%
- % inhibition Apol 40' (DRC-2, concentration 5): -3%
- % inhibition Apol 40' (DRC-2, concentration 10): 19%
- % inhibition Apol 40' (DRC-2, concentration 20): 25%
- % inhibition Apol 40' (DRC-2, concentration 40): 33%
- % inhibition Apol 40' (DRC-2, concentration 80): 44%
- % inhibition ApPOL 90' (DRC-2, concentration 2.5): 3.57%
- % inhibition ApPOL 90' (DRC-2, concentration 5): -14%
- % inhibition ApPOL 90' (DRC-2, concentration 10): 13%
- % inhibition ApPOL 90' (DRC-2, concentration 20): 18%
- % inhibition ApPOL 90' (DRC-2, concentration 40): 27%
- % inhibition ApPOL 90' (DRC-2, concentration 80): 38%
- % inhibition apPOL 180' (DRC-2, concentration 2.5): -1.44%
- % inhibition apPOL 180' (DRC-2, concentration 5): -93%
- % inhibition apPOL 180' (DRC-2, concentration 10): 1.59%
- % inhibition apPOL 180' (DRC-2, concentration 20): 2.69%
- % inhibition apPOL 180' (DRC-2, concentration 40): 13%
- % inhibition apPOL 180' (DRC-2, concentration 80): 23%

SMILES: Cc1cccc2c(C(=O)NC(C)C)cc(N(C)C)nc12 [Molecule 47, CC(NC(=O)c1cc(nc2c1cccc2C)N(C)C)C]
- DNA Pol [1]: 22
- DNA Pol (DNA Pol (primary screen value)): 22
- % inhibition Apo pol 10' (DRC-1, concentration 2.5): 6.184%
- % inhibition Apo pol 10' (DRC-1, concentration 5): 4.255%
- % inhibition Apo pol 10' (DRC-1, concentration 10): 30.9701%
- % inhibition Apo pol 10' (DRC-1, concentration 20): 57.6029%
- % inhibition Apo pol 10' (DRC-1, concentration 40): 72.1055%
- % inhibition Apo pol 10' (DRC-1, concentration 80): 75.9231%
- % inhibition Apol 90' (DRC-1, concentration 2.5): 2.22%
- % inhibition Apol 90' (DRC-1, concentration 5): 0.7023%
- % inhibition Apol 90' (DRC-1, concentration 10): 20.6995%
- % inhibition Apol 90' (DRC-1, concentration 20): 44.2849%
- % inhibition Apol 90' (DRC-1, concentration 40): 67.2168%
- % inhibition Apol 90' (DRC-1, concentration 80): 75.4674%
- % inhibition apPOL 180' (DRC-1, concentration 2.5): 2.5191%
- % inhibition apPOL 180' (DRC-1, concentration 5): -0.7995%
- % inhibition apPOL 180' (DRC-1, concentration 10): 11.775%
- % inhibition apPOL 180' (DRC-1, concentration 20): 29.3384%
- % inhibition apPOL 180' (DRC-1, concentration 40): 56.4011%
- % inhibition apPOL 180' (DRC-1, concentration 80): 69.9021%
- % inhibition Apo pol 5' (DRC-2, concentration 2.5): 7%
- % inhibition Apo pol 5' (DRC-2, concentration 5): 13%
- % inhibition Apo pol 5' (DRC-2, concentration 10): 21%
- % inhibition Apo pol 5' (DRC-2, concentration 20): 37%
- % inhibition Apo pol 5' (DRC-2, concentration 40): 47%
- % inhibition Apo pol 5' (DRC-2, concentration 80): 35%
- % inhibition Apol 40' (DRC-2, concentration 2.5): 6.48%
- % inhibition Apol 40' (DRC-2, concentration 5): 14%
- % inhibition Apol 40' (DRC-2, concentration 10): 25%
- % inhibition Apol 40' (DRC-2, concentration 20): 43%
- % inhibition Apol 40' (DRC-2, concentration 40): 62%
- % inhibition Apol 40' (DRC-2, concentration 80): 58%
- % inhibition ApPOL 90' (DRC-2, concentration 2.5): 6%
- % inhibition ApPOL 90' (DRC-2, concentration 5): 11%
- % inhibition ApPOL 90' (DRC-2, concentration 10): 21%
- % inhibition ApPOL 90' (DRC-2, concentration 20): 41%
- % inhibition ApPOL 90' (DRC-2, concentration 40): 64%
- % inhibition ApPOL 90' (DRC-2, concentration 80): 63%
- % inhibition apPOL 180' (DRC-2, concentration 2.5): 1.25%
- % inhibition apPOL 180' (DRC-2, concentration 5): 6.35%
- % inhibition apPOL 180' (DRC-2, concentration 10): 14%
- % inhibition apPOL 180' (DRC-2, concentration 20): 31%
- % inhibition apPOL 180' (DRC-2, concentration 40): 60%
- % inhibition apPOL 180' (DRC-2, concentration 80): 66%
